Paper PMC8729770, “In Vitro Evaluation of Antimicrobial Peptides from the Black Soldier Fly (Hermetia Illucens) against a Selection of Human Pathogens” (Microbiology Spectrum, 2022)
pIC50: −log10 of the molar value. Read-outs that look alike come from different tables or passages of the source. Ends that are not written are not given here.

How the values were obtained:
P. aeruginosa ATCC 9027 [1] = test: Outer membrane permeabilization with N-phenyl-naphthylamine; assay type: cell-based, Pseudomonas aeruginosa; details: compared with 16 μM polymyxin B
Description: N-phenyl-naphthylamine (NPN; Tokyo chemical industry [TCI]) was used to study the permeabilization of the OM as described by […] et al. ([81]). Briefly, P. aeruginosa ATCC 9027 was grown until the mid-log phase in MHB. Afterwards, the cells were centrifuged (3,000 × g, 15 min) and resuspended in 5 mM HEPES buffer (pH 7.4) to an OD600 of 0.5. […] Fluorescence was measured every 5 min during 1 h using a microplate reader (Promega) with λexcitation = 350 nm and λemission = 420. Data were normalized based on the fluorescent signal in the presence of 50 μL HEPES buffer, 50 μL NPN, and 100 μL bacteria. Experiments were carried out in triplicate.

P. aeruginosa ATCC 9027 [2] = test: Cytoplasmic membrane depolarization assay, diSC3(5); assay type: cell-based, Pseudomonas aeruginosa; details: 32-0.25 μM
Description: To study the effects of the peptides on the membrane potential, 3,3′-dipropylthiadicarbocyanine iodide (diSC3(5); TCI) was used as described by Kwon et al. ([82]). P. aeruginosa ATCC 9027 was grown until the mid-log phase in MHB. Afterwards, the cells were centrifuged (3,000 × g, 15 min), washed and resuspended in 5 mM HEPES buffer (pH 7.4) supplemented with 20 mM glucose and 100 mM KCl to an OD600 of 0.2. […] The fluorescent signal was measured at λexcitation = 620 nm and λemission = 670 with a microplate reader (Promega) every 5 min during 1 h. Furthermore, 0.1% Triton-X was used as a positive control. Data were normalized based on the fluorescent signal in the presence of 50 μL supplemented HEPES buffer and 150 μL diSC3(5)-bacterial suspension. The assay was carried out in triplicate.

P. aeruginosa ATCC 9027 [3] = details: ATCC 9027, 16 h
[4] = system: preformed P. aeruginosa ATCC 15442 biofilm; test: Biofilm eradication (postexposure); assay type: cell-based, Pseudomonas aeruginosa; details: 128-0.5 μM, 16 h; resazurin
Description: After 16 h of incubation at 37°C and shaking at 110 rpm (New Brunswick Innova 4300), a resazurin assay was used as described by Gilbert-Girard et al. to determine the viability of the bacterial cells in the biofilm ([79]). After incubation, the growth medium was removed from the well plates and the bacterial biofilms were washed once with PBS to remove remaining planktonic cells. […] The fluorescence of the wells was measured at λexcitation = 550 nm and λemission = 590 using a microplate reader (Promega). Afterwards, a crystal violet staining was applied to determine the biomass of the biofilms ([79]). The resazurin solution was removed from the well plates and 200 μL of 100% ethanol (VWR Chemicals) was added to fix the biofilms. After 15 min of incubation, the ethanol was discarded from the wells and the plates were left to air dry for 30 min. […] The staining solution was removed after 5 min and the biofilms were washed with PBS. After air-drying for 10 min, the crystal violet stain was solubilized in 200 μL of 100% ethanol. […] The experiment was carried out three times. Polymyxin B sulfate (Sigma-Aldrich) was included as a reference. […] The next day, bacterial viability and biomass were determined with a resazurin assay and crystal violet assay as described earlier. […]

B. cenocepacia LMG 16656 = details: for pIC50: read-out: IC50 B. cenocepacia LMG 16656, starting at 32 μM, 10^5 CFU/mL, 48 h, 37°C, resazurin; for MIC B. cenocepacia LMG 16656: visual
[5] = system: M. tuberculosis ATCC 25177 (H37Ra); details: for pIC50: read-out: IC50 M. tuberculosis ATCC 25177 (H37Ra), starting at 32 μM, 5×10^5 CFU/mL, 7 days, 37°C, resazurin; for MIC M. tuberculosis ATCC 25177 (H37Ra): visual
P. aeruginosa ATCC 9027 [6] = test: Inner membrane permeabilization, propidium iodide uptake assay; assay type: cell-based, Pseudomonas aeruginosa; details: 32 μM versus polymyxin B 16 μM
Description: To investigate the IM damage induced by the selected AMPs, a PI (Sigma-Aldrich) uptake assay was performed, adapted from […] et al. ([80]). P. aeruginosa ATCC 9027 was grown until the mid-log phase in MHB. The bacteria were centrifuged (3,000 × g, 15 min) and resuspended in 5 mM HEPES (Sigma-Aldrich) buffer (pH 7.4) to an OD600 of 0.5. […] Fluorescence was measured every 5 min during 1 h using a microplate reader (Promega) at λexcitation = 530 nm and λemission = 620. Data were normalized based on the fluorescent signal in the presence of 50 μL HEPES buffer and 150 μL PI bacterial suspension. The assay was carried out in triplicate.

Substance: RWYKKIFKPVEKAVQRVRDGTLQALGVAQQAANVYATAQGAQQQRHA-NH2 [Hill-Cec10]
- maximum NPN uptake (P. aeruginosa ATCC 9027 [1]; at 32 μM): 75%
- concentration to achieve at least 50% NPN uptake (P. aeruginosa ATCC 9027 [1]): 4 µM
- cytoplasmic membrane depolarization (diSC3(5) fluorescence) (P. aeruginosa ATCC 9027 [2]): cause cytoplasmic membrane depolarization
- pIC50 (P. aeruginosa ATCC 9027 [3]): 6.12
- effect on viability of preformed biofilm compared with the untreated control [4]: No significant effect
- pIC50 (B. cenocepacia LMG 16656; repeat 1): < 4.49
- pIC50 (B. cenocepacia LMG 16656; repeat 2): < 4.49
- MIC B. cenocepacia LMG 16656 (B. cenocepacia LMG 16656; repeat 1): >32 µM
- MIC B. cenocepacia LMG 16656 (B. cenocepacia LMG 16656; repeat 2): >32 µM
- pIC50 ([5]; repeat 1): < 4.49
- pIC50 ([5]; repeat 2): < 4.49
- MIC M. tuberculosis ATCC 25177 (H37Ra) ([5]; repeat 1): >32 µM
- MIC M. tuberculosis ATCC 25177 (H37Ra) ([5]; repeat 2): >32 µM
- PI uptake (inner membrane permeabilization) (P. aeruginosa ATCC 9027 [6]): exceeds that of a high dose of polymyxin B
